Legend:
A. niger = test: Efficacy of BA, THC and essential oils in anionic emulsion against A. niger, Example 2; type: cell-based, Aspergillus niger; conditions: essential oil 0.3% w/w alone or with BA 0.5% w/w and THC 0.05% w/w, incubation 48 hours, average of nine samples
Method: 0.9 gm aliquots of preservative containing emulsions were dispensed into several culture tubes. These were divided into various groups and inoculated with 0.1 ml of the test organism (bacteria, Candida albicans (10^8 cfu/ml) or Aspergillus niger (10^7 cfu/ml). After mixing, the tubes were incubated for 48 hours for bacteria t days for either C. albicans or A. niger. The cultures were then diluted serially with Drug Neutralizing Fluid (DNF) and 0.5 ml aliquots were plated on TSA and incubated for 24-48 hours (bacteria and C. albicans were incubated at 37° C. and A. niger at 30° C.). In the control group, the emulsion base without the preservatives was inoculated with each organism and processed similarly.
Various essential oils were used along with BA and THC and incorporated in anionic emulsion and tested against A. niger.

P. aeruginosa = test: Antimicrobial activity of test formulations in cationic or anionic emulsion, Example 3; type: cell-based, Pseudomonas aeruginosa; conditions: incubated 48 hours
Method: (§1) A stock solution was prepared containing the active ingredients and was then diluted in either a cationic or anionic test formulation, where the cationic formulation tested was Formulation A described in Example 1 and the anionic formulation tested was Formulation B described in Example 1: […]
(§2) Test formulations comprising the synthetic preservative methylparaben, at a concentration of 0.3% w/w, was used as a positive control.
(§3) The following method of testing for antimicrobial activity was used. 25 gms of emulsion containing 1-1.2% of various preservative was prepared. 0.9 gm aliquots of preservative containing emulsions were dispensed into several culture tubes. These were divided into various groups and inoculated with 0.1 ml of the test organism (bacteria, Candida albicans (10^8 cfu/ml) or Aspergillus niger (10^7 cfu/ml)). After mixing, the tubes were incubated for 48 hours for bacteria and for 7 days days for either C. albicans or A. niger. The cultures were then diluted serially with Drug Neutralizing Fluid (DNF) and 0.5 ml aliquots were plated on TSA and incubated for 24-48 hours (bacteria and C. albicans were incubated at 37° C. and A. niger at 30° C.). […] The log 10 reduction in colony counts of the test group from the colony counts of control group was determined.

Candida albicans = test: as above; type: cell-based; conditions: incubated 7 days
Method: as §1, §2
(§4) The following method of testing for antimicrobial activity was used. 25 gms of emulsion containing 1-1.2% of various preservative was prepared. 0.9 gm aliquots of preservative containing emulsions were dispensed into several culture tubes. These were divided into various groups and inoculated with 0.1 ml of the test organism (bacteria, Candida albicans (10^8 cfu/ml) or Aspergillus niger (10^7 cfu/ml)). After mixing, the tubes were incubated for 48 hours for bacteria and for 7 days days for either C. albicans or A. niger. The cultures were then diluted serially with Drug Neutralizing Fluid (DNF) and 0.5 ml aliquots were plated on TSA and incubated for 24-48 hours (bacteria and C. albicans were incubated at 37° C. and A. niger at 30° C.). In the control group, the emulsion base without the preservatives was inoculated with each organism and processed similarly. The log 10 reduction in colony counts of the test group from the colony counts of control group was determined.

Aspergillus niger = test: as above; type: cell-based; conditions: incubated 7 days
Method: as §1, §2, §4

S. aureus = test: as above; type: cell-based, Staphylococcus aureus; conditions: incubated 48 hours
Method: as §1, §2, §3

[1] = anionic emulsion (Formulation B)
[2] = cationic emulsion (Formulation A)

| SMILES | log10 reduction in cfu, A. niger (A. niger) [log10] | log reduction from control growth, P. aeruginosa (P. aeruginosa; [1]) [log10] | log reduction from control growth, P. aeruginosa (P. aeruginosa; [2]) [log10] | log reduction from control growth, C. albicans (Candida albicans; [1]) [log10] | log reduction from control growth, C. albicans (Candida albicans; [2]) [log10] | log reduction from control growth, A. niger (Aspergillus niger; [1]) [log10] | log reduction from control growth, A. niger (Aspergillus niger; [2]) [log10] | log reduction from control growth, S. aureus (S. aureus; [1]) [log10] | log reduction from control growth, S. aureus (S. aureus; [2]) [log10] |
| --- | --- | --- | --- | --- | --- | --- | --- | --- | --- |
| Cc1ccc(C(C)C)c(O)c1 [TH, Thymol] | 0.8 |  |  |  |  |  |  |  |  |
| COC(=O)c1ccc(O)cc1 [methyl paraben, methylparaben] |  | 0.11 | 2.1 | 4.31 | 4.25 | 2.88 | 4.16 | 0.12 | 1.9 |
